# Measured values as given in article PMC9061853, “Luminescent bis(benzo[d]thiazolyl)quinoxaline: facile synthesis, nucleic acid and protein BSA interaction, live-cell imaging, biopharmaceutical research and cancer theranostic application” (RSC Advances, 2019).
# How the values were obtained:
# HeLa cells = experiment: Live cell imaging / cellular uptake; assay type: cell-based, human; conditions: 50 μM in buffer, 4 h incubation, fluorescence microscopy
# Procedure: Live cell imaging was performed in HeLa cell line. Compound 7e in 50 μM concentration in the buffer, were incubated with HeLa cells for 4 h. […] Significant potency, selectivity and cellular imaging property of compound 7e, mark it as a theranostic agent.
# Fig. 2 Fluorescence and bright-field images of live cells: (a) fluorescent image of HeLa cell with compound 7e (50 μM in PBS buffer); incubation time 2 hours (b) bright-field image of HeLa cell with compound 7e (50 μM in PBS buffer); incubation time 2 hours. Scale bar 100 μm.
# Then the 96 well plate was placed on the shaker for 10 min and subsequently the absorbance was recorded by the ELISA reader at λ = 490 nm. […] The data were expressed as the growth inhibition percentage calculated according to the equation: % growth inhibition = 100 − [(AD × 100)/AB], where AD is the absorbance measured for sample and AB is the absorbance measured for blank wells (cells with a […]
# After incubating for 4 h at 37 °C, all the cells were washed with PBS buffer (pH 7.4). Then, the fluorescence images were recorded with an Olympus Fluorescence microscope with 480- […]
# Interaction of complex (7e ) with DNA was recorded using UV-Visible absorption spectroscopy and ethidium bromide displacement assay by fluorescence spectroscopy. […]
# The CT-DNA concentration in buffer were calculated by using the UV absorbance value at 260 nm and from the known molar […]
# CT-DNA = experiment: Ethidium bromide displacement assay (fluorescence); assay type: binding
# Procedure: DNA is one of the key target for cancer therapy. The drug molecules bind with the DNA by three major modes (i) electrostatic interactions with the DNA double helix (ii) binding to grooves of DNA (iii) intercalation between the base pairs of DNA.[25] The titration in UV was performed by increasing concentration of DNA from 10–60 μM into a fixed drug concentration (20 μM). The intra-ligand absorption bands around 290–350 nm (π–π* transition) were used in observation of the interaction of DNA and compound 7e (Fig. S3a ^†). There was a hypochromic shift with a slight blue shift in the wavelength of compound 7e was observed which concluded that complex 7e bind to DNA through intercalative binding mode.[26] […] Ethidium bromide, a nonspecific intercalator, gives a strong fluorescence while intercalating DNA base pairs. This enhanced fluorescence can be quenched by another chemical moiety which can competitively replace EtBr and binds to the same site.[27] […] The original fluorescence intensity of EtBr–DNA complex is rapidly quenched by increasing the concentration of compound 7e (Fig. S3c ^†). […]
# EtBr displacement is periodically used as a diagnostic approach to determine the capability of compounds to bind with DNA [4]. EtBr emits intense fluorescence when it intercalates with CT-DNA, whereas in its free form in buffer (5 mM Tris-HCl/50mM NaCl buffer, pH 7.4) there is no apparent florescence emission. […] The binding capacity of drug complex with CT-DNA was estimated by quenching of fluorescence intensity. […]
# Κapp ×[Complex]50 = ΚEtBr ×[EtBr ](3) where Kapp is the apparent binding constant of the complex, [Complex]50 is the concentration of the complex at 50% fluorescence quenching of DNA-bound ethidium bromide, KEB is the binding constant of the EB (KEtBr = 1.0 x 107 M-1), and [EB] is the concentration of ethidium bromide (8 μM). The Stern-Volmer quenching constant (K SV) has been determined quantitatively by using Stern-Volmer equation. Stern-Volmer plots of I0/I vs. [complex] were made using the corrected fluorescence data taking into account the effect of dilution. […]
# [1] = Metabolic stability in human liver microsomes; assay type: in vitro ADME; conditions: for % Metabolism in 30 min: 0.5 μM, 0.5 mg ml^−1 protein, NADPH, 37 °C; for half-life at 0.5 μM: human, liver microsomes
# Procedure: The in vitro metabolic rate of 7g was determined in liver microsomes and the intrinsic clearance (CLintr) was estimated. The study was conducted at 0.5 μM substrate concentration and microsomal protein concentration of 0.5 mg ml^−1. Metabolic stability study in the presence of microsomes and cofactor NADPH was performed at 37 °C, 60 rpm for 30 min time duration. NADPH free control incubation was performed simultaneously for 30 min to understand if there are any non-enzymatic metabolism related issues. […] Intrinsic clearance as given in Table 6, was calculated using eqn (8). ^†
SMILES,fluorescence of drug-treated live cells (cellular uptake) (HeLa cells),"K sv, Stern–Volmer quenching constant (CT-DNA; EtBr–DNA fluorescence quenching) [M⁻¹]","[7e]50, concentration at 50% fluorescence quenching of DNA-bound ethidium bromide (CT-DNA; [DNA] = 120 μM, [EtBr] = 8 μM, Tris HCl/NaCl buffer pH 7.2) [µM]","K app, apparent DNA binding constant (CT-DNA; competitive displacement of EtBr, fluorescence) [M⁻¹]",CLint ([1]; HLM set 1) [μl per min per mg protein],% Metabolism in 30 min ([1]; HLM set 1) [%],CLint ([1]; HLM set 2) [μl per min per mg protein],% Metabolism in 30 min ([1]; HLM set 2) [%],half-life at 0.5 μM ([1]; HLM set 1) [min],half-life at 0.5 μM ([1]; HLM set 2) [min]
Clc1cc2nc(COc3ccccc3-c3nc4ccccc4s3)c(COc3ccccc3-c3nc4ccccc4s3)nc2cc1Cl [Compound 7e],significant red fluorescence,5500,140,570000,,,,,,
"COc1ccc2nc(COc3ccccc3-c3nc4ccccc4s3)c(COc3ccccc3-c3nc4ccccc4s3)nc2c1 [Compound 7g, 2,2'-((((6-methoxyquinoxaline-2,3-diyl)bis(methylene))bis(oxy))bis(2,1-phenylene))bis(benzo[d]thiazole)]",,,,,28,35,25,38,49.3,55.9
